Assay results reported in patent US6696492B1, “Use of L carnitine and its alkanoyl dervatives for the preparation of a medicament useful for the treatment of patients suffering from diabetic and/or dysmetabolic nephropathy” (Sigma-Tau Industrie Farmaceutiche Riunite S.p.A., priority 1999, dated 2004).

Legend:
[1] = renally insufficient children; cited from earlier work
[2] = Clinical physiology study: forearm blood flow by plethysmography, intravenous infusion of PLC; assay type: in vivo, human; settings: 6 healthy volunteers, after 60-minute intravenous infusion at 12 micrograms per minute
Experimental: A clinical physiology study was conducted in human subjects for the purpose of establishing whether PLC was also capable of exerting a vasodilating action at the microcirculatory level. […] This study was conducted in 6 healthy volunteers, whose overall blood flow was measured by plethysmography in the forearm, both in basal conditions and after 60-minute intravenous infusion of PLC at the dose of 12 micrograms per minute. The choice of dose to be administered was based on kinetics calculations, in order to try and achieve a steady state plasma concentration of PLC similar to the one obtained with chronic oral administration of 2 grams of PLC.

[3] = Clinical study: forearm blood flow by plethysmography, local intra-arterial PLC, then nitro-L-arginine; assay type: in vivo, human; settings: 8 healthy volunteers, local intra-arterial administration
[4] = Clinical pilot study, type 2 diabetes mellitus and diabetic nephropathy in the microalbuminuria stage; assay type: in vivo, human; settings: after 6 months' treatment, 1.5 grams/day oral; before treatment 37.8±4.6; p<0.01; 8 patients
Experimental: (§1) Lastly, a clinical pilot study has been conducted in a small patient sample, consisting of 8 patients suffering from type 2 diabetes mellitus and diabetic nephropathy in the microalbuminuria stage without evidence of frank renal insufficiency and 10 patients suffering from type 2 diabetes mellitus and renal insufficiency (serum creatinine>2 mg/dl and creatinine clearance <40 ml/min).
(§2) Both patient groups were treated with 1.5 grams/day of PLC administered in three distinct doses of 500 mg at three different times of day (1 tablet after breakfast, lunch and dinner) for a total period of 6 months.

[5] = Clinical pilot study, type 2 diabetes mellitus and renal insufficiency; assay type: in vivo, human; settings: after 6 months' treatment, 1.5 grams/day oral
Experimental: as §1, §2

[6] = Tolerability in patients with diabetes mellitus and peripheral arteriopathy; assay type: in vivo, human; settings: 6 months' treatment
[7] = organ ischaemia and reperfusion; cited from earlier work
[8] = cited from earlier work

Row | SMILES | serum triglyceride levels [1] | increase in blood flow as compared to resting basal flow [2] | vasodilatory action [3] | urinary microalbumin excretion rate [4] [mg/g creatinine] | 24-h proteinuria ([5]; before treatment 6.2±2.3, p<0.01, 10 patients) [g/24 h] | creatinine clearance ([5]; before treatment 34.6±4.6, spread ±7.3) [mL/min] | LDL ([5]; before treatment 169±15) [mg/dL] | triglycerides ([5]; before treatment 217±75 mg/dl) [m/dl] | side effects in man [6] | damage induced by the ischaemia [7] | functional capability and perfusion of the peripheral nerves ([8]; streptozocin-diabetic rats (Hotta et al. 1996)) | plasma lipid levels (total cholesterol, triglycerides, LDL) ([8]; streptozocin-diabetic rats)
1 | C[N+](C)(C)C[C@H](O)CC(=O)[O-] [L-carnitine] | reduces the serum triglyceride levels | – | – | – | – | – | – | – | – | – | – | –
2 | CCC(=O)O[C@H](CC(=O)[O-])C[N+](C)(C)C [PLC, propionyl L-carnitine] | – | approximately 25% | confirmed the vasodilatory action | 21.3±5.1 | 3.1±1.2 | 42.7 | 158 ± 10 | 192±62 | no severe unwanted effects | capable of reducing the damage induced by the ischaemia | capable of improving | reduced
